Test results from patent US20240287089A1, “Preparation and Uses of 7-Azaindenoisoquinolines” (Purdue Research Foundation, priority 0001, published 2024).

What was measured:
HOP-62 (Lung) = conditions: Lung HOP-62; reference 20; read-out: Cytotoxicity GI50; cited from earlier work
SN12C (Renal) = conditions: reference 20, read-out: Cytotoxicity GI50; cited from earlier work
[1] = Brain penetration and plasma/brain pharmacokinetics in CD1 mice; conditions: for Brain Conc / Brain/Plasma Conc Ratio / Plasma Conc: 20 mg/kg IV
Procedure: Brain Penetration Studies. […] The concentrations were determined by LC-MS/MS with direct measurement of the plasma samples. The brain tissue was homogenized with water using a 3:1 ratio of water (mL) to brain (g) before determination of the concentrations (ng/mL) in the brain homogenates, and the homogenate values then were multiplied by a factor of 4 to obtain the brain concentrations (ng/g).

[2] = Brain penetration and plasma/brain pharmacokinetics in combination with Temodar or Lynparza
Procedure: A similar analysis was performed with LMP744 and LMP400 in combination with Temodar and Lynparza.

[3] = test system: MOLT-4 human leukemia cells; experiment: MOLT-4 xenograft in female NOD SCID mice; type: in vivo; conditions: 20 mg/kg IV, 24 days after tumor inoculation
Text: (§1) Xenograft Studies. […] JQ1 was employed as a positive control.

[4] = test system: RD-ES human sarcoma tumor cells; experiment: RD-ES xenograft in female NOD SCID mice; type: in vivo; conditions: 20 mg/kg IV
Procedure: as §1
Similar studies were performed after inoculation of female NOD SCID mice with RD-ES human sarcoma tumor cells (FIGS. 16-19). The tumors grew much more rapidly and treatment was started on day 8 after tumor inoculation, with measurements of body weights and tumor sizes being made on days 8, 12, 15, 19, and 22 after tumor inoculation. […] The average RD-ES tumor sizes were much larger than observed with MOLT-4 (2327±285 vs. 546±59 mm^3).

[5] = test system: RS4;11 human leukemia cells; experiment: RS4;11 xenograft in female NOD SCID mice; type: in vivo
Procedure: as §1
The compounds were also evaluated in an RS4;11 human leukemia xenograft model (FIGS. 20 and 21). Treatment was started 12 days after tumor inoculation, with drugs being administered on days 1-5 and 11-15 after the start of treatment. Animal weights and tumor volumes were determined at 12, 15, 19, 22, and 25 days after tumor inoculation.

[6] = mouse, 1 μM
Procedure: Analysis of Plasma Protein Binding and Stability in Human and Mouse Blood Plasma by Equilibrium Dialysis. Frozen plasma (stored at −80° C.) was thawed immediately in a 37° C. water bath. The working solutions of test compound and control compound were prepared in DMSO at 200 μM concentration, and the working solutions were spiked into plasma. The final concentration of compound was 1 μM. The final concentration of DMSO was 0.5%. Ketoconazole was used as positive control in the assay. The dialysis membranes were soaked in ultrapure water for 60 min to separate strips, then in 20% ethanol for 20 min, and then finally in dialysis buffer for 20 min. For equilibrium dialysis, each cell contained plasma sample (150 μL) and was dialyzed against an equal volume of dialysis buffer (PBS). The assay was performed in duplicate. The dialysis plate was sealed and incubated at 37° C. with 5% CO2 at 100 rpm for 6 h. At the end of incubation, samples (50 μL) from both buffer and plasma chambers were transferred to wells of a 96-well plate. Plasma (50 μL) was added to each buffer sample and an equal volume of PBS was added to the collected plasma sample. […] The concentrations of test compounds in the buffer and plasma chambers were determined from peak area ratios.

[7] = brain, IV 20 mg/kg, male CD1 mice
[8] = plasma, IV 20 mg/kg, male CD1 mice
[9] = 10 mg/kg IV + Lynparza 100 mg/kg PO, 0.25 h
[10] = 10 mg/kg IV + Lynparza 100 mg/kg PO, 0.5 h
[11] = 10 mg/kg IV + Lynparza 100 mg/kg PO, 1 h
[12] = 10 mg/kg IV + Lynparza 100 mg/kg PO, 2 h
[13] = 10 mg/kg IV + Lynparza 100 mg/kg PO, 4 h
[14] = 10 mg/kg IV + Lynparza 100 mg/kg PO, 8 h
[15] = 10 mg/kg IV + Lynparza 100 mg/kg PO, 24 h
[16] = LMP744 20 mg/kg IV + Temador 125 mg/kg PO, 0.25 h
[17] = LMP744 20 mg/kg IV + Temador 125 mg/kg PO, 0.5 h
[18] = LMP744 20 mg/kg IV + Temador 125 mg/kg PO, 1 h
[19] = LMP744 20 mg/kg IV + Temador 125 mg/kg PO, 2 h
[20] = LMP744 20 mg/kg IV + Temador 125 mg/kg PO, 4 h
[21] = LMP744 20 mg/kg IV + Temador 125 mg/kg PO, 8 h
[22] = LMP744 20 mg/kg IV + Temador 125 mg/kg PO, 24 h
[23] = brain, 10 mg/kg IV + Lynparza 100 mg/kg PO
[24] = brain, LMP744 20 mg/kg IV + Temador 125 mg/kg
[25] = plasma, 10 mg/kg IV + Lynparza 100 mg/kg PO
[26] = plasma, LMP744 20 mg/kg IV + Temador 125 mg/kg

COc1cc2c3c(n(CCCNCCO)c(=O)c2cc1OC)-c1cc2c(cc1C3=O)OCO2 [LMP744]
GI50 (HOP-62 (Lung)): 20 nM | GI50 (SN12C (Renal)): < 10 nM | Brain Conc ([1]; 0.25 h): 941 ± 158 nM | Brain/Plasma Conc Ratio ([1]; 0.25 h): 0.65 | Plasma Conc ([1]; 0.25 h): 1434 ± 123 nM | Brain Conc ([1]; 0.5 h): 582 ± 380 nM | Brain/Plasma Conc Ratio ([1]; 0.5 h): 0.34 | Plasma Conc ([1]; 0.5 h): 1712 ± 945 nM | Brain Conc ([1]; 1 h): 802 ± 122 nM | Brain/Plasma Conc Ratio ([1]; 1 h): 0.90 | Plasma Conc ([1]; 1 h): 894 ± 194 nM | Brain Conc ([1]; 2 h): 743 ± 136 nM | Brain/Plasma Conc Ratio ([1]; 2 h): 1.39 | Plasma Conc ([1]; 2 h): 535 ± 103 nM | Brain Conc ([1]; 4 h): 857 ± 162 nM | Brain/Plasma Conc Ratio ([1]; 4 h): 5.44 | Plasma Conc ([1]; 4 h): 154 ± 14 nM | Brain Conc ([1]; 8 h): 759 ± 188 nM | Plasma Conc ([1]; 8 h): 86 ± 31 nM | Brain Conc ([1]; 24 h): 524 ± 166 nM | Brain/Plasma Conc Ratio ([1]; 24 h): 27.1 | Plasma Conc ([1]; 24 h): 23 ± 5 nM | AUClast [1, 7]: 7606 ng·h/g | AUC—% Extrap—obs [1, 7]: 72% | Cmax [1, 7]: 413 ng/g | Tmax [1, 7]: 0.25 h | AUCInf [1, 8]: 2132 ng·h/mL | AUClast [1, 8]: 2022 ng·h/mL | AUC—% Extrap—obs [1, 8]: 5.16% | C0 [1, 8]: 1943 ng/mL | Cl_obs [1, 8]: 156 mL/min/kg | MRTInf—obs [1, 8]: 5.14 h | T1/2 [1, 8]: 7.48 h | Vss—obs [1, 8]: 48.2 L/kg | Brain Conc [2, 9]: 89 ± 19 nM | Brain/Plasma Conc Ratio [2, 9]: 0.46 | Plasma Conc [2, 9]: 1356 ± 229 nM | Brain Conc [2, 10]: 780 ± 24 nM | Brain/Plasma Conc Ratio [2, 10]: 0.83 | Plasma Conc [2, 10]: 940 ± 155 nM | Brain Conc [2, 11]: 825 ± 250 nM | Brain/Plasma Conc Ratio [2, 11]: 2.05 | Plasma Conc [2, 11]: 402 ± 29 nM | Brain Conc [2, 12]: 850 ± 58 nM | Brain/Plasma Conc Ratio [2, 12]: 2.64 | Plasma Conc [2, 12]: 322 ± 88 nM | Brain Conc [2, 13]: 548 ± 28 nM | Brain/Plasma Conc Ratio [2, 13]: 2.91 | Plasma Conc [2, 13]: 188 ± 54 nM | Brain Conc [2, 14]: 557 ± 66 nM | Brain/Plasma Conc Ratio [2, 14]: 7.74 | Plasma Conc [2, 14]: 72 ± 26 nM | Brain Conc [2, 15]: 457 ± 61 nM | Brain/Plasma Conc Ratio [2, 15]: 20.30 | Plasma Conc [2, 15]: 13 ± 2 nM | Brain Conc [2, 16]: 1093 ± 168 nM | Brain/Plasma Conc Ratio [2, 16]: 0.49 | Plasma Conc [2, 16]: 2238 ± 465 nM | Brain Conc [2, 17]: 1199 ± 243 nM | Brain/Plasma Conc Ratio [2, 17]: 0.89 | Plasma Conc [2, 17]: 1854 ± 101 nM | Brain Conc [2, 18]: 1390 ± 145 nM | Brain/Plasma Conc Ratio [2, 18]: 1.35 | Plasma Conc [2, 18]: 1027 ± 202 nM | Brain Conc [2, 19]: 1328 ± 188 nM | Brain/Plasma Conc Ratio [2, 19]: 2.49 | Plasma Conc [2, 19]: 534 ± 143 nM | Brain Conc [2, 20]: 1272 ± 188 nM | Brain/Plasma Conc Ratio [2, 20]: 3.58 | Plasma Conc [2, 20]: 355 ± 37 nM | Brain Conc [2, 21]: 1244 ± 78 nM | Plasma Conc [2, 21]: 139 ± 17 nM | Brain Conc [2, 22]: 955 ± 76 nM | Brain/Plasma Conc Ratio [2, 22]: 46 | Plasma Conc [2, 22]: 21 ± 4 nM | AUClast [2, 23]: 5860 ng·h/g | Cmax [2, 23]: 373 ng/g | Tmax [2, 23]: 2.00 h | AUClast [2, 24]: 12185 ng·h/g | Cmax [2, 24]: 611 ng/g | Tmax [2, 24]: 1.00 h | AUCInf [2, 25]: 1535 ng·h/mL | AUClast [2, 25]: 1491 ng·h/mL | AUClast/D [2, 25]: 149 h·ng/mL per mg/kg | AUC—% Extrap—obs [2, 25]: 2.83% | C0 [2, 25]: 2072 ng/mL | Cl_obs [2, 25]: 109 mL/min/kg | MRTInf—obs [2, 25]: 4.33 h | T1/2 [2, 25]: 5.43 h | Vss—obs [2, 25]: 28.2 L/kg | AUCInf [2, 26]: 2881 ng·h/mL | AUClast [2, 26]: 2813 ng·h/mL | AUClast/D [2, 26]: 141 h·ng/mL per mg/kg | AUC—% Extrap—obs [2, 26]: 2.37% | C0 [2, 26]: 4973 ng/mL | Cl_obs [2, 26]: 116 mL/min/kg | MRTInf—obs [2, 26]: 4.09 h | T1/2 [2, 26]: 5.20 h | Vss—obs [2, 26]: 28.4 L/kg

COc1cc2c3c(n(CCCNCCO)c(=O)c2cc1OC)-c1nc2c(cc1C3=O)OCO2 [G105, 6-(3-((2-Hydroxyethyl)amino)propyl)-2,3-dimethoxy-5H-[1,3]dioxolo[4″,5″:5′,6′]pyrido[3′,2′:4,5]cyclopenta[1,2-c]isoquinoline-5,12(6H)-dione]
average animal weight relative to initial body weight [3]: 80.9±1.1% | potency on tumor size [4]: most potent | toxicity estimated from decrease in animal weight ([5]; 20 mg/kg IV): most toxic | reduction of tumor volume ([5]; IV days 1-5 and 11-15, G105 20 mg/kg, G104 15 and 30 mg/kg): most potent | % Stability at 6 hrs [6]: 97.59%
